Columns and labels:
[1] = test system: cell bound form of LFA-1 (CD18, CD11a) with ICAM-1, SKW3 cells; test: Inhibition of SKW3 cell binding to ICAM-1 (PMA-stimulated); assay type: cell-based, human; details: Homo sapiens, SKW3, values marked c: no inhibition observed up to highest dose; read-out: Assay to Detect SKW3 Cells Binding to ICAM IC50
How it was run: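 Compound-treated, PMA-stimulated human T-cell line SKW3 (50 μg/mL PMA final) allowed to adhere for 2 h at 37° C to wells coated with sICAM-1 at 40 μg/mL or fibronectin at 100 μg/mL. After gentle RPMI wash, 50% inhibition concentration or range reported in μM.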

[2] = test system: LFA-1 dependent aggregation of JY cells; test: JY cell homotypic aggregation assay (PMA-stimulated); assay type: cell-based, human; details: Homo sapiens
How it was run: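 Homotypic aggregation of EBV-transformed JY cells, stimulated by phorbol myristate acetate ([…]), scored visually over time in compound presence at 2·10^5 cells/well in serum-supplemented RPMI 1640. Result given as μM concentration or range inhibiting binding by 50%.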

[3] = test system: human MLR, peripheral blood mononuclear cells; test: Inhibition of the mixed lymphocyte reaction (MLR), tritiated thymidine uptake; assay type: cell-based; parameters: key: Data are reported as “+” or “−” at a given concentration (in μM); Data are reported as “+” or “−” at a given concentration (in μM)
Procedure: Assay to Determine Inhibition the Mixed Lymphocyte Reaction
As discussed above, ICAM-1 is necessary for effective cellular interactions during an immune response mediated through LFA-1-dependent cell adhesion. When lymphocytes from two unrelated individuals are cultured together, blast transformation and cell proliferation of the lymphocytes are observed. This response is known as a mixed lymphocyte reaction (MLR) and is analogous to the response of lymphocytes to the 10 addition of antigens or mitogens (Immunology: The Science of Self-Nonself Discrimination; Klein, J., Ed.; John Wiley & Sons: NY, 1982, pp 453-458).
This assay protocol is used to determine the effect of a test compound on the human MLR.
Description of Assay Protocol:
Peripheral blood is obtained from normal, healthy donors by venipuncture. The blood is collected in heparinized tubes and diluted 1:1 at room temperature with Puck's G (GIBCO) balanced salt solution (BSS). The blood mixture (20 mL) is layered over 15 mL of a Ficoll/Hypaque density gradient (Pharmacia, density=1.078, room temperature) and centrifuged at 1000·g for 20 minutes. The interface is then collected and washed 3 times in Puck's G. The cells are counted on a hemocytometer and resuspended in RPMI 1640 culture medium (GIBCO) containing 0.5% of gentamicin, 1 mM L-glutamine (GICO) and 5% heat inactivated (56° C., 30 min) human AB sera (Flow Laboratories) (hereafter referred to as RPMI-culture medium).
Stimulator cells (cells that have been treated with irradiation so that they are unable to proliferate) from a separate donor are cultured with the responder cells at the same concentration. Test compound is added to wells at various concentrations. The total volume per culture is 0.2 mL. Controls include compound vehicle alone (DMSO), responder cells alone, and stimulator cells alone. The culture plates are incubated at 37° C. in a 5% CO2-humidified air atmosphere for 5 days.
The wells are pulsed with 0.5 μCi of tritiated thymidine (^3HT) (New England Nuclear) for the last 18 h of culture. In some cases a two-way MLR can be performed. The protocol is the same except that the second donor's cells are not inactivated by irradiation.
The cells are harvested onto glass fiber filters using an automated multiple sample harvester (Skatron, Norway), and rinsed with water and methanol. The filters are oven dried and counted in Aquasol in a Beckman (LS-3801) liquid scintillation counter.
Data are reported as “+” or “−” at a given concentration (in μM).

Structure (SMILES)	IC50 [1] [µM]	IC50 [2] [µM]	Mixed Lymphocyte Reaction MLR +/− ([3]; at 25 μM)	Mixed Lymphocyte Reaction MLR +/− ([3]; at 50 μM)
CC(=O)N1C(=O)N(c2cc(Cl)cc(Cl)c2)C(=O)[C@@]1(C)Cc1ccc(Br)cc1 [Example 102]	25 to 50	1.3	+(25)	
C[C@]1(Cc2ccc(Br)cc2)NC(=O)N(c2cc(Cl)cc(Cl)c2)C1=O [Example 29]	8	0.1		+(50)

Reference: patent publication USRE38132E1, “Phenylpyrrolidines, phenylimidazolidines,3-phenyl-1,3-oxizolidines and 3-phenyl-1,3-thiazolidines and their use in the treatment of inflammatory disease” (Boehringer Ingelheim Pharmaceuticals, Inc., priority 1997, dated 2003)
